Assays:
Type in all cases: in vivo, human
[1] = tested on: subjects with Idiopathic Pulmonary Fibrosis (IPF); assay: Phase 2a study in IPF subjects: lung function by forced vital capacity (FVC, ppFVC)
Procedure: Study Design. Eligible subjects with mild to moderate IPF were randomized to receive placebo or ENV-101 as a daily oral dose for 12 consecutive weeks of treatment. […] Subjects participated in a Screening Visit, a Day 1 randomization visit, a telephone visit at Week 1, visits at Week 6 and Week 12 during the treatment period and a follow-up visit at Week 18. All subjects were randomized to receive either placebo or 200 mg of taladegib (ENV-101). During the treatment period, if a subject experienced an adverse event that is related to the study medication, the dose of the study drug was permitted to be modified based on the type of adverse event observed and after consultation with the Sponsor and Medical Monitor. A study subject was considered to have completed the study if he or she completed all study visits including the last visit or the last scheduled procedure shown in the Schedule of Activities (SoA). • 1. Males and females greater than 40 years of age. • 2. Idiopathic Pulmonary Fibrosis diagnosis based upon […], Japanese Respiratory Society, European Respiratory Society, Latin […] guidelines within the last 7 years. Diagnosis will be confirmed to be consistent with IPF by centrally read high resolution computed tomography (HRCT) obtained at the Screening Visit or previous HRCT scan performed within 30 days of the Screening Visit may be used. • 3. Ability to successfully perform lung function tests. • 4. Percent predicted forced vital capacity (FVC) of >50% at the Screening Visit. • 5. […] Evidence of other known causes of interstitial lung disease (ILD) (e.g., domestic and occupational environmental exposures, connective-tissue disease [CTD], and drug toxicity), lung transplant expected within 12 months of screening or evidence of clinically significant lung disease other than IPF including but not limited to asthma, chronic obstructive pulmonary disease (COPD), uncontrolled pulmonary hypertension and emphysema where computed tomography (CT)-assessed extent of emphysema is greater than extent of fibrosis. • 2. […]

[2] = tested on: subjects with Idiopathic Pulmonary Fibrosis (IPF); assay: Phase 2a study in IPF subjects: quantitative HRCT measurements (TLC, % QILD, % QLF, % QGG)
Procedure: (§1) Study Design. Eligible subjects with mild to moderate IPF were randomized to receive placebo or ENV-101 as a daily oral dose for 12 consecutive weeks of treatment. […] Subjects participated in a Screening Visit, a Day 1 randomization visit, a telephone visit at Week 1, visits at Week 6 and Week 12 during the treatment period and a follow-up visit at Week 18. All subjects were randomized to receive either placebo or 200 mg of taladegib (ENV-101). During the treatment period, if a subject experienced an adverse event that is related to the study medication, the dose of the study drug was permitted to be modified based on the type of adverse event observed and after consultation with the Sponsor and Medical Monitor. A study subject was considered to have completed the study if he or she completed all study visits including the last visit or the last scheduled procedure shown in the Schedule of Activities (SoA). [table] The dosing regimen evaluated in this study was ENV-101 or placebo administered daily. The dose of ENV-101 studied was 200 mg. Subjects randomized to ENV-101 took two 100 mg tablets daily for the 200 mg dose, while subjects randomized to placebo took two placebo tablets daily. Subjects took both tablets at the same time, and it was recommended that subjects take the dose at the same time each day, ideally in the morning prior to eating. If a subject experienced nausea or other gastrointestinal symptoms, it was recommended that the subject take the dose with a low-fat meal or prior to bedtime.

[3] = tested on: subjects with Idiopathic Pulmonary Fibrosis (IPF); assay: Post-hoc analysis of HRCT images with Qureight deep learning models (Lung8, Vascul8, Fibr8)
Description: A post-hoc analysis utilizing deep learning models developed by Qureight (using machine learning methodologies such as 3D convolutional neural networks), were employed to quantify lung volume (Lung8), vessel volume (Vascul8), fibrosis extent (Fibr8) and airway volume (Air8) from High Resolution Computed Tomography images. Deep learning-based CT biomarkers provide an alternate, non-invasive way to predict disease progression and/or assess treatment effects in antifibrotic clinical trials. 34 patients with baseline and week 12 HRCTs were available for model analysis. Of the 34 patients, 18 patients received placebo, and 16 received ENV-101. Group comparisons were performed with an independent t-test, and linear regression assessed variable relationships. Effect sizes were calculated using Hedges' G to account for sample size bias. A p-value<0.05 was considered significant.

[4] = tested on: subjects with Idiopathic Pulmonary Fibrosis (IPF); assay: Phase 2a study in IPF subjects: patient reported outcome, UCSD Shortness of Breath Questionnaire (SOBQ); details: 200 mg once a day, vs placebo, not statistically significant
Procedure: as §1, with “If a subject experienced nausea or other gastrointestinal symptoms, it was recommended that the subject take the dose with a low-fat meal or prior to bedtime.” left out

[5] = week 12, ENV-101 vs placebo, Hedges' G

Structure (SMILES): CN(C(=O)c1ccc(F)cc1C(F)(F)F)C1CCN(c2nnc(-c3ccnn3C)c3ccccc23)CC1 [taladegib]
- mean change from baseline of percent predicted forced vital capacity (ppFVC) ([1]; IPF subjects, 200 mg QD, at 6 weeks (n=16)): 1.7%
- effect size, % predicted FVC ([1]; post-hoc analysis, ENV-101 vs placebo, Hedges' G): 0.78
- % predicted FVC compared to placebo ([1]; post-hoc analysis, patients with baseline and week 12 HRCT, p=0.03): significant improvement
- change from baseline in percent quantitative ground glass opacity (% QGG) ([2]; 200 mg once a day for 12 weeks): about −4.6%
- change from baseline in percent quantitative interstitial lung disease (% QILD) ([2]; 200 mg once a day for 12 weeks): about −9%
- change from baseline in percent quantitative lung fibrosis (% QLF) ([2]; 200 mg once a day for 12 weeks): about −2%
- increase in total lung capacity (TLC) ([2]; 200 mg once a day for 12 weeks, p=0.005): about 200 mL
- increase in total lung capacity (TLC), percent ([2]; 200 mg once a day, over the three month treatment period): about 8%
- fibrosis (conclusion in words) ([3]; treated over 12 weeks): reduced
- lung volume (conclusion in words) ([3]; treated over 12 weeks): significantly improved
- pulmonary vascular volume (conclusion in words) ([3]; treated over 12 weeks): significantly reduced
- Change in Pulmonary vascular volume (normalised to lung volume) ([3]; week 12, 16 patients on ENV-101, p=0.0007 vs placebo): −0.25%
- Lung volume change (total lung volume, Lung8) ([3]; week 12, 16 patients on ENV-101, p=0.014 vs placebo): 142.28 mL
- Change in Fibrosis (extent, normalised to lung volume) ([3]; week 12, 16 patients on ENV-101, p=0.063 vs placebo): −1.32%
- effect size, change in pulmonary vascular volume [3, 5]: −1.28
- effect size, lung volume change [3, 5]: 0.87
- mean change from baseline of responses to the UCSD Shortness of Breath Questionnaire (SOBQ) [4]: improvement
